≈ marks a conversion by molar mass, not a printed value. Where a SMILES comes first, the peptide text is derived from it. Bridges are numbered along the chain shown (N, C = ends). Roman numbers before positions name the chains, in order. [ ]: non-standard residue; d: D form. NMeV = CN[C@H](C(=O)O)C(C)C; Hiv = CC(C)[C@H](O)C(=O)O; dDab = NCC[C@@H](N)C(=O)O; hSer = N[C@@H](CCO)C(=O)O; Dab = NCC[C@H](N)C(=O)O; Abu = CC[C@H](N)C(=O)O; Dap = NC[C@H](N)C(=O)O
Experiments:
[1] = test system: Escherichia coli ATCC 25922; assay type: cell-based; conditions: ATCC 25922
Procedure, shortened: (§1)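 MIC in μg/mL, read as absence of visible growth after 18-20 h incubation at 35° C, by standard CLSI microdilution. Peptides tested in two-fold serial dilution in cation-adjusted MH-II broth containing 0.002% (final) Polysorbate 80, against roughly 10^6 CFU/mL inocula.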

[2] = test system: Enterobacter cloacae 848840; assay type: cell-based; conditions: 848840
Procedure, shortened: as §1

[3] = test system: Acinetobacter baumannii DSM 30008; assay type: cell-based; conditions: DSM 30008
Procedure, shortened: as §1

[4] = test system: Klebsiella pneumoniae SSI #3010; assay type: cell-based; conditions: SSI #3010
Procedure, shortened: as §1

[5] = test system: Pseudomonas aeruginosa ATCC 27853; assay type: cell-based; conditions: ATCC 27853
Procedure, shortened: as §1

[6] = test system: Escherichia coli 926415; assay type: cell-based; conditions: 926415
Procedure, shortened: as §1

[7] = test system: Klebsiella pneumoniae 968733; assay type: cell-based; conditions: 968733
Procedure, shortened: as §1

[8] = test system: Acinetobacter baumannii 872842; assay type: cell-based; conditions: 872842
Procedure, shortened: as §1

[9] = test system: human red blood cells (hRBC); assay: Hemolysis; assay type: cell-based; conditions: red cells of human, 1 h, 200
Procedure, shortened: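 First, fresh human erythrocytes are washed in PBS; next, they are incubated at 20% (v/v) with compound at 200 μg/mL for 1 h at 37° C. Finally, centrifuged supernatants are diluted and OD540 is taken relative to the Triton X-100 lysis control.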

[10] = test system: male ICR mice; assay: Tolerability in a mouse model (Maximum Tolerated Dose assay); assay type: in vivo; conditions: groups of 3
Procedure: The tolerability of the peptides was tested in a mouse model at Pharmacology Discovery Services Taiwan Ltd, Taipei, Taiwan. The peptides were administered subcutaneously (s.c.) at 30 mg/kg or 40 mg/kg, respectively; twice at a 12-hr interval, for assessment of possible adverse effects in the Maximum Tolerated Dose (MTD) assay in male ICR (Institute of Cancer Research) mice. The peptides were dissolved in 0.9% NaCl at the concentrations either of 6 or 8 mg/mL, respectively, based on the free base molecular weight. The pH values of dosing solutions were adjusted to 6.5-7.6 before s.c. administration. A dosing volume at 5 mL/kg and a concentration of 6 or 8 mg/mL, respectively, was applied. The fresh prepared stock solution were stored at 4° C. during the study. Male ICR mice weighing 23±3 g were provided by BioLasco Taiwan (under Charles River Laboratories Licensee). Animals were acclimated for 3 days prior to use and were confirmed to be in good health. The peptides were administered s.c. at 30 mg/kg or 40 mg/kg, respectively, twice at a 12-hr interval, to groups of 3 ICR male mice and observed for the presence of acute toxic symptoms (mortality, convulsions, tremors, muscle relaxation, sedation, etc.) and autonomic effects (diarrhea, salivation, lacrimation, vasodilation, piloerection, etc.) during the first 30 min. The peptides were administered again at a 12-hr (two total doses) interval, following the first dose. The animals were then observed again for the presence of acute toxic symptoms and autonomic effects during the first 30 min.

[11] = 2 × 40 mg/kg s.c. at a 12-hr interval
[12] = 2 × 30 mg/kg s.c. at a 12-hr interval

Compound | Escherichia coli ATCC 25922 MIC [1] | MIC [2] | Acinetobacter baumannii DSM 30008 MIC [3] | Klebsiella pneumoniae SSI #3010 MIC [4] | Pseudomonas aeruginosa ATCC 27853 MIC [5] | MIC [6] | MIC [7] | MIC [8] | Hemolysis at 200 μg/mL [9] | Mortality and dose [10, 11] | MIC [1] | MIC [3] | MIC [4] | MIC [5] | Mortality and dose [10, 12]
CC(=O)N[C@H](C(=O)N[C@H]1CSSC[C@@H](C(=O)N[C@@H](CO)C(N)=O)NC(=O)[C@H](C(C)C)NC(=O)[C@H](CO)NC(=O)[C@H](Cc2c[nH]c3ccccc23)NC(=O)[C@H](CCN)NC(=O)CNC(=O)[C@H](CCC(=O)N[C@@H](CCN)C(=O)N[C@H](C(=O)N[C@@H](CN)C(=O)N[C@H]2CCNC(=O)[C@H]([C@@H](C)O)NC(=O)[C@H](CCN)NC(=O)[C@H](CCN)NC(=O)[C@H](CC(C)C)NC(=O)[C@@H](CC(C)C)NC(=O)[C@H](CCN)NC2=O)[C@@H](C)O)NC(=O)[C@H](CCN)NC(=O)[C@H](Cc2ccc(O)cc2)NC1=O)C(C)C [Ex. 345] (I: Ac-VCY[Dab]EG[Dab]WSVCS-NH2 / II: [Dab]T[Dap][Dab][Dab][dL]L[Dab][Dab]T; disulfide I:2-I:11; amide I:5-II:N; lactam II:4-II:C) | 0.0625 µg/mL | 0.125 µg/mL (≈ 0.0528 µM) | 0.0625 µg/mL | 0.0625 µg/mL | 0.125 µg/mL | 0.125 µg/mL (≈ 0.0528 µM) | 0.25 µg/mL (≈ 0.106 µM) | 0.125 µg/mL (≈ 0.0528 µM) | <1% | 0/3 died at 2 × 40 mg/kg | – | – | – | – | –
CC[C@@H]1NC(=O)[C@H](CCN)NC(=O)[C@H](Cc2ccc(O)cc2)NC(=O)[C@@H](NC(=O)[C@@H](NC(C)=O)C(C)C)CSSC[C@@H](C(=O)N[C@@H](CO)C(N)=O)NC(=O)[C@H](C(C)C)NC(=O)[C@H](CO)NC(=O)[C@H](Cc2c[nH]c3ccccc23)NC(=O)[C@H](CCC(=O)N[C@@H](CCN)C(=O)N[C@H](C(=O)N[C@@H](CN)C(=O)N[C@H]2CCNC(=O)[C@H]([C@@H](C)O)NC(=O)[C@H](CCN)NC(=O)[C@H](CCN)NC(=O)[C@H](CC(C)C)NC(=O)[C@@H](CC(C)C)NC(=O)[C@H](CCN)NC2=O)[C@@H](C)O)NC(=O)[C@@H](CCN)NC1=O [Ex. 363] (I: Ac-VCY[Dab][Abu][dDab]EWSVCS-NH2 / II: [Dab]T[Dap][Dab][Dab][dL]L[Dab][Dab]T; disulfide I:2-I:11; amide I:7-II:N; lactam II:4-II:C) | 0.0625 µg/mL | 0.0625 µg/mL (≈ 0.0261 µM) | 0.0625 µg/mL | 0.0625 µg/mL | 0.125 µg/mL | 0.125 µg/mL (≈ 0.0522 µM) | 0.125 µg/mL (≈ 0.0522 µM) | 0.0625 µg/mL (≈ 0.0261 µM) | 2% | 0/3 died at 2 × 40 mg/kg | – | – | – | – | –
CC(=O)N[C@H](C(=O)N[C@H]1CSSC[C@@H](C(=O)N[C@H](C)C(=O)N[C@@H](CO)C(N)=O)NC(=O)[C@H](C(C)C)NC(=O)[C@H](CO)NC(=O)[C@H](Cc2c[nH]c3ccccc23)NC(=O)[C@H](CO)NC(=O)[C@@H](CCN)NC(=O)[C@H](CCC(=O)N[C@@H](CCN)C(=O)N[C@H](C(=O)N[C@@H](CN)C(=O)N[C@H]2CCNC(=O)[C@H]([C@@H](C)O)NC(=O)[C@H](CCN)NC(=O)[C@H](CCN)NC(=O)[C@H](CC(C)C)NC(=O)[C@@H](CC(C)C)NC(=O)[C@H](CCN)NC2=O)[C@@H](C)O)NC(=O)[C@H](CCN)NC(=O)[C@H](Cc2ccc(O)cc2)NC1=O)C(C)C [Ex. 370] (I: Ac-VCY[Dab]E[dDab]SWSVC[dA]S-NH2 / II: [Dab]T[Dap][Dab][Dab][dL]L[Dab][Dab]T; disulfide I:2-I:11; amide I:5-II:N; lactam II:4-II:C) | 0.0625 µg/mL | 0.125 µg/mL (≈ 0.0506 µM) | 0.0625 µg/mL | 0.0625 µg/mL | 0.125 µg/mL | 0.5 µg/mL (≈ 0.202 µM) | 1 µg/mL (≈ 0.405 µM) | 0.5 µg/mL (≈ 0.202 µM) | 2% | 0/3 died at 2 × 40 mg/kg | – | – | – | – | –
CN[C@H](C(=O)N[C@H]1CSSC[C@@H](C(=O)N[C@@H](CO)C(N)=O)NC(=O)[C@H](C(C)C)NC(=O)[C@H](CO)NC(=O)[C@H](Cc2c[nH]c3ccccc23)NC(=O)[C@H](CCO)NC(=O)[C@@H](CCN)NC(=O)[C@H](CCC(=O)N[C@@H](CCN)C(=O)N[C@H](C(=O)N[C@@H](CCN)C(=O)N[C@H]2CCNC(=O)[C@H]([C@@H](C)O)NC(=O)[C@H](CCN)NC(=O)[C@H](CCN)NC(=O)[C@H](CC(C)C)NC(=O)[C@@H](CC(C)C)NC(=O)[C@H](CCN)NC2=O)[C@@H](C)O)NC(=O)[C@H](CCN)NC(=O)[C@H](Cc2ccc(O)cc2)NC1=O)C(C)C [Ex. 43] (I: H-[NMeV]CY[Dab]E[dDab][hSer]WSVCS-NH2 / II: [Dab]T[Dab][Dab][Dab][dL]L[Dab][Dab]T; disulfide I:2-I:11; amide I:5-II:N; lactam II:4-II:C) | – | 2 µg/mL (≈ 0.834 µM) | – | – | – | 0.5 µg/mL (≈ 0.208 µM) | 2 µg/mL (≈ 0.834 µM) | 0.125 µg/mL (≈ 0.0521 µM) | <1% | – | 0.25 µg/mL (≈ 0.104 µM) | 0.5 µg/mL (≈ 0.208 µM) | 0.25 µg/mL (≈ 0.104 µM) | 0.5 µg/mL (≈ 0.208 µM) | 0/3 died at 2 × 30 mg/kg
CC(=O)N[C@H](C(=O)N[C@H]1CSSC[C@@H](C(=O)N[C@@H](CO)C(N)=O)NC(=O)[C@H](C(C)C)NC(=O)[C@H](CO)NC(=O)[C@H](Cc2c[nH]c3ccccc23)NC(=O)[C@H](CCO)NC(=O)[C@@H](CCN)NC(=O)[C@H](CCC(=O)N[C@@H](CCN)C(=O)N[C@H](C(=O)N[C@@H](CCN)C(=O)N[C@H]2CCNC(=O)[C@H]([C@@H](C)O)NC(=O)[C@H](CCN)NC(=O)[C@H](CCN)NC(=O)[C@H](CC(C)C)NC(=O)[C@@H](CC(C)C)NC(=O)[C@H](CCN)NC2=O)[C@@H](C)O)NC(=O)[C@H](CCN)NC(=O)[C@H](Cc2ccc(O)cc2)NC1=O)C(C)C [Ex. 41] (I: Ac-VCY[Dab]E[dDab][hSer]WSVCS-NH2 / II: [Dab]T[Dab][Dab][Dab][dL]L[Dab][Dab]T; disulfide I:2-I:11; amide I:5-II:N; lactam II:4-II:C) | – | 0.25 µg/mL (≈ 0.103 µM) | – | – | – | 0.25 µg/mL (≈ 0.103 µM) | 0.125 µg/mL (≈ 0.0515 µM) | 0.125 µg/mL (≈ 0.0515 µM) | <1% | – | 0.0625 µg/mL (≈ 0.0258 µM) | 0.0625 µg/mL (≈ 0.0258 µM) | 0.125 µg/mL (≈ 0.0515 µM) | 0.25 µg/mL (≈ 0.103 µM) | 0/3 died at 2 × 30 mg/kg
CC(C)C[C@@H]1NC(=O)[C@@H](CC(C)C)NC(=O)[C@H](CCN)NC(=O)[C@@H](NC(=O)[C@H](CN)NC(=O)[C@@H](NC(=O)[C@H](CCN)NC(=O)CC[C@@H]2NC(=O)[C@H](CCN)NC(=O)[C@H](Cc3ccc(O)cc3)NC(=O)[C@@H](NC(=O)[C@@H](O)C(C)C)CSSC[C@@H](C(=O)N[C@@H](CO)C(N)=O)NC(=O)[C@H](C(C)C)NC(=O)[C@H](CO)NC(=O)[C@H](Cc3c[nH]c4ccccc34)NC(=O)[C@H](CO)NC(=O)[C@@H](CCN)NC2=O)[C@@H](C)O)CCNC(=O)[C@H]([C@@H](C)O)NC(=O)[C@H](CCN)NC(=O)[C@H](CCN)NC1=O [Ex. 115] (I: H-[Hiv]CY[Dab]E[dDab]SWSVCS-NH2 / II: [Dab]T[Dap][Dab][Dab][dL]L[Dab][Dab]T; disulfide I:2-I:11; amide I:5-II:N; lactam II:4-II:C) | – | 0.0625 µg/mL (≈ 0.0265 µM) | – | – | – | 0.125 µg/mL (≈ 0.053 µM) | 0.25 µg/mL (≈ 0.106 µM) | 0.125 µg/mL (≈ 0.053 µM) | <1% | – | 0.0625 µg/mL (≈ 0.0265 µM) | 0.0625 µg/mL (≈ 0.0265 µM) | 0.0625 µg/mL (≈ 0.0265 µM) | 0.125 µg/mL (≈ 0.053 µM) | 0/3 died at 2 × 30 mg/kg

From patent publication US11629171B2, “Beta-hairpin peptidomimetics” (POLYPHOR AG, priority 2017, dated 2023)
